The assay concerns MDA-MB-231 viability, PrestoBlue fluorescence. As to the kind of experiment: growth inhibition of MDA-MB-231 cells, dose response, mTOR inhibitor project (AID 1224900).

Take `CCOC(Cn1nc(-c2ccc3oc(N)nc3c2)c2c(N)ncnc21)OCC`: the EC50 is 72 nM.

The EC50 is the midpoint of the concentration-response curve.

These data come from PubChem BioAssay AID1224900.
